Source: the NIST ThermoML archive (doi:10.1007/s10765-016-2109-2)

Experiment: molar heat capacity at saturation pressure
Settings: Liquid, Vacuum adiabatic calorimetry

CCCCCC[n+]1ccn(C)c1.O=S(=O)([N-]S(=O)(=O)C(F)(F)F)C(F)(F)F
Settings	molar heat capacity [J/K/mol]
288.72 K	599.09
288.87 K	602.23
289.04 K	592.83
289.17 K	597.31
289.3 K	604.91
289.44 K	590.59
289.57 K	596.41
289.7 K	599.99
289.83 K	601.78
297.45 K	599.54
297.76 K	608.04
297.89 K	604.46
298.02 K	598.65
298.15 K	596.41
298.28 K	606.25
298.41 K	601.78
298.53 K	599.99
298.66 K	603.57
301.64 K	606.7
301.75 K	608.94
301.88 K	612.52
302.01 K	606.7
302.13 K	613.41
302.26 K	605.81
304.3 K	608.49
304.69 K	603.12
304.82 K	606.7
304.95 K	612.52
305.08 K	604.46
305.2 K	610.73
305.33 K	607.6
305.46 K	613.41
305.59 K	609.39
314.15 K	619.68
314.57 K	615.2
314.69 K	607.6
314.82 K	616.99
314.94 K	611.62
315.07 K	612.52
315.2 K	618.33
315.32 K	614.75
315.45 K	608.94
320.89 K	620.12
321.17 K	622.81
321.3 K	614.75
321.42 K	621.02
321.55 K	613.41
321.67 K	616.99
321.79 K	616.1
321.92 K	619.23
322.04 K	622.36
322.16 K	621.02
322.29 K	618.33
322.41 K	623.7
323.89 K	624.15
324.15 K	620.57
324.28 K	625.49
324.4 K	627.73
324.52 K	629.07
324.65 K	621.47
324.77 K	622.81
324.89 K	617.89
325.02 K	621.02
325.14 K	625.05
325.24 K	622.36
325.26 K	623.7
333.63 K	634.44
333.82 K	633.99
333.94 K	626.83
334.06 K	631.76
334.18 K	629.07
334.3 K	632.65
334.42 K	636.68
334.54 K	633.1
334.66 K	627.28
334.79 K	631.31
334.91 K	629.97
339.73 K	638.92
339.83 K	637.13
339.95 K	634.89
340.03 K	643.39
340.15 K	635.78
340.27 K	640.7
340.39 K	642.05
340.51 K	638.47
344.34 K	641.6
344.46 K	645.63
344.58 K	642.49
344.7 K	644.73
344.82 K	639.36
344.93 K	648.31
345.05 K	647.42
345.17 K	645.18
345.29 K	638.47
345.41 K	643.84
348.64 K	645.18
348.76 K	643.84
348.88 K	648.31
348.99 K	646.97
349.11 K	649.65
349.23 K	648.76
349.35 K	644.73
349.47 K	647.42
349.58 K	643.39
349.65 K	648.31
349.7 K	645.63
349.82 K	643.39
349.94 K	645.63
350.05 K	644.73
350.17 K	646.97
350.29 K	647.86
350.36 K	647.42
